Results reported in patent US20200270588A1, “GLUCOSYL TRANSFERASE POLYPEPTIDES AND METHODS OF USE” (Syngenta Participations AG, priority 2017, published 2020).

What was measured:
Assay in all cases: UDP-Glo glucosyl transferase assay, purified enzyme
Assay type in all cases: biochemical
[1] = target: T1, SEQ ID NO 21, mutant of Zea mays bx9 glucosyl transferase (Zea mays, UniProt B4G072, A334K/F21Y/L194V/M279F/S117V); conditions: lower block, concentration printed only in upper block: V 0.300, VII 0.210; IV, VIII, XI, XXI, XX, XVIII, XVI, XV, XIV 0.200; others 1.000 mM
T1 construct: His tag (C); made in house

[2] = target: T2, SEQ ID NO 22, mutant of Zea mays bx9 glucosyl transferase (Zea mays, UniProt B4G072, A334K/F21Y/M279F/S117V/T220P); conditions: lower block, concentration printed only in upper block: V 0.300, VII 0.210; IV, VIII, XI, XXI, XX, XVIII, XVI, XV, XIV 0.200; others 1.000 mM
T2 construct: His tag (C); made in house

[3] = target: T3, SEQ ID NO 17, zmBX9 S117V, M279F, A334K mutant (Zea mays, UniProt B4G072, A334K/M279F/S117V); conditions: herbicide mM: V 0.300, VI 0.250, VII 0.210; IV, VIII, XI, XXI, XX, XVIII, XVI, XV, XIV 0.200; others 1.000
T3 construct: polypeptides were the C-terminally his-tagged; His tag (C); made in house

[4] = target: T4, SEQ ID NO 23, mutant of Zea mays bx9 glucosyl transferase (Zea mays, UniProt B4G072, A334K/F21Y/L194C/M279F/S117V); conditions: lower block, concentration printed only in upper block: V 0.300, VII 0.210; IV, VIII, XI, XXI, XX, XVIII, XVI, XV, XIV 0.200; others 1.000 mM
T4 construct: His tag (C); made in house

[5] = target: T5, SEQ ID NO 19, mutant of Zea mays bx9 glucosyl transferase (Zea mays, UniProt B4G072, A281K/A334K/L194V/M279F/S117V); conditions: herbicide mM: V 0.300, VI 0.250, VII 0.210; IV, VIII, XI, XXI, XX, XVIII, XVI, XV, XIV 0.200; others 1.000
T5 construct: His tag (C); made in house

[6] = target: T6, SEQ ID NO 18, mutant of Zea mays bx9 glucosyl transferase (Zea mays, UniProt B4G072, A281K/A334K/F21Y/M279F/S117V); conditions: herbicide mM: V 0.300, VI 0.250, VII 0.210; IV, VIII, XI, XXI, XX, XVIII, XVI, XV, XIV 0.200; others 1.000
T6 construct: His tag (C); made in house
T6 sequence (B4G072 whole entry F21Y/S117V/M279F/A281K/A334K): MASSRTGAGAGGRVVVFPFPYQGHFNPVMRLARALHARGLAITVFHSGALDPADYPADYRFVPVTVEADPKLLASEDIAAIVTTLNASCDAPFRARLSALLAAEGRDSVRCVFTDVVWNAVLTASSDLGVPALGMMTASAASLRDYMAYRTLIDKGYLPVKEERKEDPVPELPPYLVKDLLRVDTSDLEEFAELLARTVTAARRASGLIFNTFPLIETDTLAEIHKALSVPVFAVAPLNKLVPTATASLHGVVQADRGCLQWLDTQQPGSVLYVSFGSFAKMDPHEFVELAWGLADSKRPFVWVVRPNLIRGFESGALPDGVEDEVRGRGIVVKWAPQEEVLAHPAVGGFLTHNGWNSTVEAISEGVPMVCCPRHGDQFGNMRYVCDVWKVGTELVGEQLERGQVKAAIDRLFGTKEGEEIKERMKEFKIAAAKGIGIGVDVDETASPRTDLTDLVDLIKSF

T5 sequence (B4G072 whole entry S117V/L194V/M279F/A281K/A334K): as the sequence (B4G072 whole entry F21Y/S117V/M279F/A281K/A334K) above, with Y21F, L194V counted along it
T1 sequence (B4G072 whole entry F21Y/S117V/L194V/M279F/A334K): as the sequence (B4G072 whole entry F21Y/S117V/M279F/A281K/A334K) above, with L194V, K281A counted along it
T2 sequence (B4G072 whole entry F21Y/S117V/T220P/M279F/A334K): as the sequence (B4G072 whole entry F21Y/S117V/M279F/A281K/A334K) above, with T220P, K281A counted along it
T3 sequence (B4G072 whole entry S117V/M279F/A334K): as the sequence (B4G072 whole entry F21Y/S117V/M279F/A281K/A334K) above, with Y21F, K281A counted along it
T4 sequence (B4G072 whole entry F21Y/S117V/L194C/M279F/A334K): as the sequence (B4G072 whole entry F21Y/S117V/M279F/A281K/A334K) above, with L194C, K281A counted along it

SMILES | Activity [1] | Activity [2] | Activity [3] | Activity [4] | Activity [5] | Activity [6]
CN1CC(O)N(c2cc(C(F)(F)F)ccn2)C1=O (stereo not shown) [Compound V] | 1.548 pmol/sec/pmol enzyme | 1.221 pmol/sec/pmol enzyme | 0.565 pmol/sec/pmol enzyme | 1.246 pmol/sec/pmol enzyme | 1.651 pmol/sec/pmol enzyme | 1.582 pmol/sec/pmol enzyme
Cc1cnc(N2C(=O)N(C)CC2O)cc1C(F)(F)F (stereo not shown) [XVIII] | 0.425 pmol/sec/pmol enzyme | 0.933 pmol/sec/pmol enzyme | 0.231 pmol/sec/pmol enzyme | 0.253 pmol/sec/pmol enzyme | 0.964 pmol/sec/pmol enzyme | 0.898 pmol/sec/pmol enzyme
CN1CC(O)N(c2cc(C(F)(F)F)c(Cl)cn2)C1=O (stereo not shown) [XI] | 0.374 pmol/sec/pmol enzyme | 0.548 pmol/sec/pmol enzyme | 0.120 pmol/sec/pmol enzyme | 0.227 pmol/sec/pmol enzyme | 0.898 pmol/sec/pmol enzyme | 0.710 pmol/sec/pmol enzyme
CON1C(=O)N(c2cc(C(F)(F)F)ccn2)C(O)[C@@H]1C (stereo partly shown) [Compound VI] |  |  | 1.003 pmol/sec/pmol enzyme |  |  | 
